Measurements from paper PMC3867265 (Science signaling, 2013).
Residue numbers refer to the chain shown, from its start. In names and notes the source's numbering stands. Entries after “also recorded” stand apart in the source; their conditions may differ.

T1: MT2 (Mus musculus, UniProt Q8CIQ6)
T1 sequence (Q8CIQ6 1-364): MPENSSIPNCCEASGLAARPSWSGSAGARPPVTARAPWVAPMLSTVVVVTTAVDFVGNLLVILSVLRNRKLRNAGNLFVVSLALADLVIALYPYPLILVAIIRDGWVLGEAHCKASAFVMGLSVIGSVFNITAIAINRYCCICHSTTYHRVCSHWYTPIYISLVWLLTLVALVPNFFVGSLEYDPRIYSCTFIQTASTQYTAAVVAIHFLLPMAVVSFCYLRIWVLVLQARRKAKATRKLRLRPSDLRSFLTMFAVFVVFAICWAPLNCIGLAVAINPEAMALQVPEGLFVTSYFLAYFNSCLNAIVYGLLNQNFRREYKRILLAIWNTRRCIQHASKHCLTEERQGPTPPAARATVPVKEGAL

T2: mouse MT2 receptor (Mus musculus, UniProt Q8CIQ6)
T2 sequence (Q8CIQ6 1-364): T1 sequence (Q8CIQ6 1-364)

B1: mouse MT2-P95L mutant, Rluc8 and YFP fusion proteins (receptor, UniProt Q8CIQ6 1-364, looked up)
chain: T1 sequence (Q8CIQ6 1-364) with P95L
B2: mouse melatonin receptor type 2 (MT2), Rluc8 and YFP fusion proteins (receptor, UniProt Q8CIQ6 1-364, looked up)
chain: T1 sequence (Q8CIQ6 1-364)
B3: mouse melatonin receptor type 1 (MT1), Rluc8 and YFP fusion proteins (receptor, UniProt Q61184 1-353, looked up)
chain: MKGNVSELLNATQQAPGGGEGGRPRPSWLASTLAFILIFTIVVDILGNLLVILSVYRNKKLRNSGNIFVVSLAVADLVVAVYPYPLVLTSILNNGWNLGYLHCQVSAFLMGLSVIGSIFNITGIAMNRYCYICHSLKYDKIYSNKNSLCYVFLIWMLTLIAIMPNLQTGTLQYDPRIYSCTFTQSVSSAYTIAVVVFHFIVPMIIVIFCYLRIWVLVLQVRRRVKPDNKPKLKPQDFRNFVTMFVVFVLFAICWAPLNLIGLIVASDPATMVPRIPEWLFVASYYLAYFNSCLNAIIYGLLNQNFRKEYKKIIVSLCTAKMFFVESSNEEADKIKCKPSPLIPNNNLIKVDSV

Assays:
C3H-f+/+ mice [1] = assay: Scotopic; type: in vivo, mouse; details: for effect on the melatonin-induced increase in the amplitude of the a- and b-wave: intravitreal antagonist, then melatonin i.p. 1 mg/kg; for amplitude of the a- and b-wave, compound alone: intravitreal injection alone, no melatonin
mouse photoreceptors = assay: Photoreceptor response; type: in vivo; details: for effect on the melatonin-induced photoreceptor response (a-wave at 7 ms): intravitreal injection of the agent plus melatonin; for mimicking of the photoreceptor response to melatonin (a-wave at 7 ms): intravitreal injection of the agent
MT1 [2] = molecular target: T3, MT1 (Mus musculus, UniProt Q61184); assay: cell-based
MT1/MT2 heteromers [3] = molecular target: T4, MT1/MT2 heteromers (Mus musculus, UniProt Q61184+Q8CIQ6); assay: cell-based
C3H-f+/+ mice [4] = details: exogenous administration during the day, wild-type mice; cited from earlier work
MT1 and MT2 receptors = MT1 and MT2 receptors (Mus musculus, UniProt Q61184+Q8CIQ6)
MT2-/- mice = assay: Scotopic; type: in vivo, mouse; details: i.p. 1 mg/kg at ZT6, 1 h dark adaptation
MT1 [5] = molecular target: T3, MT1; details: HEK293T cells expressing MT1 alone
[6] = molecular target: wild-type MT1 receptor with the inactive MT2-P95L mutant (Mus musculus, UniProt Q61184); details: cells coexpressing wild-type MT1 with inactive MT2-P95L mutant
MT1 [7] = molecular target: T3, MT1; details: HEK293T cells expressing MT1 alone, compared with MT1/MT2 heteromers
MT1/MT2 heteromers [8] = molecular target: T4, MT1/MT2 heteromers
MT2 = molecular target: T1, MT2; assay: Inositol phosphate production, HEK293T cells expressing MT2 alone; type: cell-based
mouse MT1 receptor = mouse MT1 receptor (Mus musculus, UniProt Q61184); assay: Competition of 2-[125I]iodo-melatonin binding at mouse MT1; details: mouse MT1, membranes of HEK293 cells
mouse MT2 receptor = molecular target: T2, mouse MT2 receptor; assay: Competition of 2-[125I]iodo-melatonin binding at mouse MT2; details: mouse MT2, membranes of HEK293 cells
[9] = molecular target: B2; assay: FRET or BRET
FRET or BRET = molecular target: the molecule itself; assay: FRET or BRET
[10] = molecular target: B3; assay: FRET or BRET

Chain of wild-type MT1 receptor with the inactive MT2-P95L mutant (Q8CIQ6 whole entry P95L partner, one chain of several): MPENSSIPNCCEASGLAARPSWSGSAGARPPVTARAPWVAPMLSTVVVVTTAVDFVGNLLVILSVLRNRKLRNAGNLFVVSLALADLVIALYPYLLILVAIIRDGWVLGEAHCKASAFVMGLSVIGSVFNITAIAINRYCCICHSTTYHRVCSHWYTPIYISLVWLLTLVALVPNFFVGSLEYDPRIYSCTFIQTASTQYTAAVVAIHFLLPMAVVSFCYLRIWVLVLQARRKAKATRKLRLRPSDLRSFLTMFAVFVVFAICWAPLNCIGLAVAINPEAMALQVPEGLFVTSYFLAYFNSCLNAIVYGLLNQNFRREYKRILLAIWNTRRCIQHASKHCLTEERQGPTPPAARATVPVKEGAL

Question: What does the source list for `CC(=O)NCCc1c(Cc2ccccc2)[nH]c2ccccc12` [luzindole]?
Answer: effect on the melatonin-induced increase in the amplitude of the a- and b-wave (C3H-f+/+ mice [1]): prevented the increase; amplitude of the a- and b-wave, compound alone (C3H-f+/+ mice [1]): did not produce any significant changes

Question: For `Nc1ncnc2c1nc(Br)n2[C@@H]1O[C@@H]2COP(=O)(O)O[C@H]2[C@H]1O` [8-br-cAMP, 8-bromoadenosine 3′,5′-cyclic monophosphate], which “effect on the melatonin-induced photoreceptor response (a-wave at 7 ms)” value (shortened to “effect … (a-wave at 7 ms)”) (mouse photoreceptors) is on record?
Answer: Its value is “had no effect”.

Question: For `CN1CCCC1CCn1cc(C2=C(c3c[nH]c4ccccc34)C(=O)NC2=O)c2ccccc21` (stereo not drawn) [Bisl, Bisindolylmaleimide II], which “block of the effect of exogenous melatonin on photoreceptors” value (mouse photoreceptors; intravitreal PKC inhibitor plus melatonin) is on record?
Answer: Its value is “about 40%”.

Question: Which “effect … (a-wave at 7 ms)” value (mouse photoreceptors) does the source give for `Cl.NC(CSSCC(N)C(=O)N1CCn2cc(-c3ccccc3)nc2C1CC1CCCCC1)C(=O)N1CCn2cc(-c3ccccc3)nc2C1CC1CCCCC1` (stereo not drawn) [BIM 46187, 7-[2-amino-1-oxo-3-thio-propyl]-8-cyclohexylmethyl-2-phenyl-5,6,7,8-tetrahydro-i midazo-[1,2a]-pyrazine dimer, hydrochloride] here?
Answer: Its value is “inhibited”.

Question: With `Cl.Cl.O=S(=O)(NCCNC/C=C/c1ccc(Br)cc1)c1cccc2cnccc12` [H89, H-89 dihydrochloride hydrate] as the molecule, how does the “mimicking of the photoreceptor response to melatonin (a-wave at 7 ms)” value (mouse photoreceptors) read?
Answer: The value was “did not mimic”.

Question: And the “effect … (a-wave at 7 ms)” value (mouse photoreceptors)?
Answer: Its value is “did not affect”.

Question: With `CCC(=O)N[C@@H]1Cc2ccccc2[C@H](c2ccccc2)C1` (relative stereo) [4P-PDOT, cis-4-Phenyl-2-propionamidotetralin] as the molecule, how does the IC50 (MT1 [2]) read?
Answer: The IC50 was 5.8 ± 7.7 nM.

Question: And the IC50 (MT1/MT2 heteromers [3])?
Answer: Its IC50 is 4 ± 3.5 nM.

Question: And the “effect on the melatonin-induced increase in the amplitude of the a- and b-wave” value (C3H-f+/+ mice [1])?
Answer: Its value is “prevented the increase”.

Question: What about the “amplitude of the a- and b-wave, compound alone” value (C3H-f+/+ mice [1]) of the same molecule?
Answer: Its value is “did not produce any significant changes”.

Question: Which “amplitudes of a- and b-waves of the scotopic ERG” value (C3H-f+/+ mice [4]) does the source give for `COc1ccc2[nH]cc(CCNC(C)=O)c2c1` [melatonin] here?
Answer: Its value is “increases the amplitudes”.

Question: What about the “photoreceptor response (a-wave at 7 ms)” value (mouse photoreceptors; exogenous melatonin, ZT 6) of the same molecule?
Answer: The value was “significantly increased”.

Question: What about the “inhibition of cAMP production” value (MT1 and MT2 receptors) of the same molecule?
Answer: Its value is “not impaired but rather improved”.

Question: And the “changes in the dark-adapted ERG” value (MT2-/- mice)?
Answer: The value was “did not produce any changes”.

Question: And the “inositol phosphate production, result in words” value (“inositol phosphate production” below) (MT1 [5])?
Answer: The value was “inactive; also recorded: only at supra-physiological melatonin amount”.

Question: What about the “inositol phosphate production” value [6] of the same molecule?
Answer: Its value is “completely abolished”.

Question: And the PKC activity (MT1 [7])?
Answer: The PKC activity was “less potently”.

Question: And the PKC activity (MT1/MT2 heteromers [8]; HEK293T cells expressing MT1/MT2 heteromers, increasing concentrations)?
Answer: Its PKC activity is “dose-dependently increased”.

Question: And the “PKC activity with coexpressed MT2-P95L” value (MT1/MT2 heteromers [8]; MT1/MT2 heteromers plus dominant negative MT2-P95L mutant, 100 nM melatonin)?
Answer: Its value is “potently inhibited”.

Question: And the EC50 (MT2)?
Answer: The EC50 was 51 nM.

Question: And the “inositol phosphate production” value (MT2; HEK293T cells expressing MT2 alone)?
Answer: Its value is “unable to modulate this pathway”.

Question: With `CCCC(=O)NCCc1c2n(c3ccc(OC)cc13)Cc1ccccc1-2` [IIK7] as the molecule, how does the Ki (mouse MT1 receptor) read?
Answer: Its Ki is 73 ± 23 nM.

Question: What about the Ki (mouse MT2 receptor) of the same molecule?
Answer: Its Ki is 0.052 ± 0.015 nM.

Question: What about the “amplitude of the a- or b-wave” value (C3H-f+/+ mice [1]; intravitreal 50 nM (MT2-selective concentration), C3H-f+/+ mice) of the same molecule?
Answer: Its value is “did not increase”.

Question: What about the “amplitude of the a- and b-wave” value (C3H-f+/+ mice [1]; intravitreal 5 μM (activates MT1 and MT2), C3H-f+/+ mice) of the same molecule?
Answer: The value was “significantly increased”.

Question: Which “mimicking of the photoreceptor response to melatonin (a-wave at 7 ms)” value (mouse photoreceptors) does the source give for `CCCCCCCCCCCCCC(=O)O[C@@H]1[C@@H](C)[C@@]2(O)[C@@H](C=C(CO)C[C@]3(O)C(=O)C(C)=C[C@@H]23)[C@@H]2C(C)(C)[C@]12OC(C)=O` [PMA, Phorbol 12-myristate 13-acetate] here?
Answer: Its value is “mimicked”.

Question: And the “effect … (a-wave at 7 ms)” value (mouse photoreceptors)?
Answer: Its value is “significantly reduced”.

Question: For B1, which BRET50 [9] is on record?
Answer: The BRET50 was 1.52.

Question: What about the BRET50 (FRET or BRET) of the same molecule?
Answer: Its BRET50 is 2.61.

Question: What about the BRET50 [10] of the same molecule?
Answer: The BRET50 was 3.48.

Question: With B2 as the molecule, how does the BRET50 [10] read?
Answer: The BRET50 was 1.67.

Question: Which BRET50 (FRET or BRET) does the source give for B3 here?
Answer: The BRET50 was 0.71.
